We go through 6 compounds from patent publication US10457665B2, “1,4-di-(4-methylthiophenyl)-3-phtaloylazetidine-2-one and the derivatives thereof” (Universite De Nantes, priority 2015, dated 2019).

Where only a bound is given, the exact number is not on record here.

One data set deals with C57BL/6 mice. As to the kind of experiment: Gastrointestinal transit (charcoal), anandamide-induced inhibition. It counts as in vivo, mouse. As to conditions: agonist alone, 10 mg/kg i.p. On the procedure: Transit through the stomach and the intestine was measured via oral administration of vegetable charcoal suspended in gum arabic used herein as nonabsorbable marker. Briefly, following a short fast, C57BL/6 mice were injected intraperitoneally (i.p.) with anandamide (10 mg/kg) in the presence or absence of the molecule of interest JM-00.266 (i.e., compound IA) (10 mg/kg) before oral charcoal administration. 25 minutes later, the animals were sacrificed by cervical dislocation in order to entirely remove the intestine. The distance between the beginning of the pylorus and the location of the charcoal bolus was measured.

Another data set has as its target T1, CB1R (pcDNA3.1-mCB1) (Mus musculus, UniProt P47746).
T1 construct: expressed in transfected cells; host or cells: HEK293T/17 (ATCC), transient transfection with FuGENE HD
As to the kind of experiment: GloSensor cAMP assay in CB1R-transfected HEK293T/17 cells. In kind it is cell-based. As to conditions: for cAMP concentrations in the absence of agonist (AEA): HEK293T/17 cells transfected with mCB1, forskolin 1 μM, FIG. 2. On the procedure: HEK293T/17 (ATCC) cells were cultured in DMEM 10% FCS, then seeded at 30000 cells/well in 96-well plates. After 24 h, the cells were subjected to transient transfection by FuGENE HD (Promega) by pcDNA3.1-mCB1 (50 ng) and pGlo (100 ng) plasmids with or without pertussis toxin (PTX). For the control assays, the cells were transfected with empty pcDNA3 (EV) and pGlo vectors with or without PTX. At 48 h (24 h post-transfection), the cells were loaded for 2 h with 2% GloReagent in CO2-independent medium with 10% FCS (80 μL/well).
The cells were then treated by adding, at t=0, 10 μL/well of Forskolin (FSK) 1 μM final, in order to increase the basal cAMP concentration. The kinetics of appearance of cAMP was monitored for 10 minutes. At t=10, the molecules to be tested were added and the cAMP variations measured for 20 minutes. The light signal was measured in RLU and is expressed as % response relative to the signal read at t=10 min (FSK1 μM). Sigmoidal curves were obtained by measurement at t=10 min after addition of the molecule to be tested (thus t=20 min total) of the percentage of light signal as a function of molecule concentration. The 4PL regression was carried out using the Sigma Plot software and made it possible to obtain an EC50 (1 experiment, n=3).

For data set [1], the system named is CB1R expression in liver explants of ob/ob mice. As to the kind of experiment: Liver explant culture, CB1R gene expression (RT-PCR). As to conditions: liver explants of ob/ob mice treated 21 h, FIG. 1. It counts as cell-based, mouse. On the procedure: The liver of the mice was perfused in situ, under sodium pentobarbital anaesthesia (50 mg/kg), with Hank's medium (pH 7.4) saturated with oxygen. Next, the liver was sectioned using a Brendel/Vitron slicer (Tucson, Ariz., USA) in the same medium. The liver sections (about 200 μm) were then incubated 21 h in William's medium E (WME) oxygenated and supplemented with deactivated foetal calf serum (10%) and antibiotic/antifungal cocktail (1%) under controlled atmosphere (5% CO2), to which is added either the antagonist to be tested or vehicle.
Total messenger RNA (mRNA) extraction was carried out with Tri Reagent (Euromedex, France) and consecutive synthesis of complementary DNA (cDNA) was carried out from 1 μg of mRNA with the Bio-Rad iScripttm Reverse Transcription super mix kit (Bio-Rad, France).
Gene expression was evaluated by semi-quantitative real-time reverse transcription-polymerase chain reaction (RT-PCR). The primers used were designed using the Primer3Plus software (http://www.bioinformatics.nl/cgi-bin/primer3plus/primer3plus.cgi) and were synthesized by MWG-Biotech (TATA box-binding protein: Sense […], antisense […]; CB1R: Sense […], antisense aaccccacccagtttgaac). Semi-quantification of gene expression was obtained by taking into account the efficacy of each PCR and after standardization with the reporter gene, TATA box-binding protein.

A further data set has as its system CB1R -/- mice. As to the kind of experiment: Acute oral glucose tolerance test (OGTT) in CB1R KO mice. As to conditions: 10 mg/kg i.p., OGTT 2 g/kg. In kind it is in vivo, mouse. On the procedure: (§1) In order to evaluate the short-term effects of the rimonabant-like molecules, as well as their selectivity for CB1R, wild-type C57BL/6 mice and CB1R −/− mice underwent an oral glucose tolerance test (OGTT at 2 g/kg) 10 min after i.p. injection of vehicle or of JM-02.003 or JM-00.266 (i.e., compound IA) (10 mg/kg). Blood glucose was measured at times t=0, t=15 min, t=30 min, t=45 min, t=60 min, t=90 min, and t=120 min post-oral. glucose administration using a Contour®TS blood glucose monitor (ref. 81574201, Bayer HealthCare) and reactive strips (ref. 81574274, Bayer HealthCare).

For another data set, the system named is wild-type C57BL/6 mice. As to the kind of experiment: Acute oral glucose tolerance test (OGTT) in wild-type mice. It counts as in vivo, mouse. The conditions noted are these: 10 mg/kg i.p. 10 min before 2 g/kg oral glucose load, wild-type C57Bl/6J mice. On the procedure:
as §1

For data set [2], the system named is obese C57BL/6 mice. As to the kind of experiment: ITT before and after 30-day chronic treatment. The conditions noted are these: obese mice after 30 days of treatment, 10 mg/kg. It counts as in vivo, mouse. On the procedure:
(§2) In order to evaluate the long-term effects of the treatment on blood glucose control, glucose tolerance (OGTT) and insulin sensitivity (ITT) were evaluated pre- and post-treatment. Thus, for the OGTT the mice were force-fed glucose (2 g/kg), and for the ITT the mice received an i.p. injection of insulin (0.5 IU/kg). In both cases, blood glucose was measured at times t=0, t=15 min, t=30 min, t=45 min, t=60 min, t=90 min, and t=120 min post-glucose ingestion using a Contour®TS blood glucose monitor (ref. 81574201, Bayer HealthCare) and reactive strips (ref. 81574274, Bayer HealthCare).

The test system of data set [3] is obese C57BL/6 mice. As to the kind of experiment: Open-field test after 30-day chronic treatment. It counts as in vivo, mouse. The conditions noted are these: end of 30-day treatment, 10 mg/kg i.p. On the procedure: Locomotor activity of the mice was measured at the conclusion of the chronic treatment with rimonabant or molecule JM-00.266 (i.e., compound IA) by an infrared monitoring system. To that end, the animals were placed individually in 43×43 cm plexiglass boxes (MED associates) for 20 min. Two series of 16 pulsed infrared beams were spaced 2.5 cm apart on opposite walls to record ambulatory X-Y movements at 100 ms resolution. The centre was defined as a central 32×32 cm square. In addition to locomotor activity information, this test makes it possible to predict anxiolytic activity in response to novelty or to an anxiogenic environment. The variables measured in the open field are total ambulatory activity (in cm), the number of entries and the time spent in the central area as well as the distance traversed in the centre divided by the total distance traversed.

The subject of data set [4] is obese C57BL/6 mice. As to the kind of experiment: Plasma liver markers after 30-day chronic treatment. It counts as in vivo, mouse. The source says:
(§3) In order to determine the long-term effects of the molecules of interest, C57BL/6 mice made obese by means of a high-sucrose, high-fat diet (HSHF: 30% crude fat, 33.5% carbohydrates; ref. E15126-34; ref. E15126-34, SSNIFF, Soest, Germany) for 20 weeks. These mice then received daily an i.p. injection of rimonabant, JM-00.266 (i.e., compound IA) or vehicle for a period of 30 days. In parallel, weight and food intake were monitored every two days following the beginning of the treatment.
Total cholesterol, triglycerides and hepatic markers were assayed by a Dimension Vista Intelligent Lab System (Siemens, Saint-Denis, France) using suitable reagents.

The test system of data set [5] is CB1R expression in liver explants of ob/ob mice. The conditions noted are these: previous study (Jourdan et al. 2012); cited from earlier work.
The subject of data set [6] is obese C57BL/6 mice. As to the kind of experiment: Food intake, body weight and body composition (EchoMRI) during 30-day chronic treatment. It counts as in vivo, mouse.
Text: as §3
The long-term effect of the treatment on body composition was measured using an EchoMRI™ scanner allowing non-invasive analysis of fat mass, lean mass and body fluid composition by nuclear magnetic resonance (NMR) on the live animal without anaesthesia.

The test system of data set [7] is obese C57BL/6 mice. As to the kind of experiment: OGTT before and after 30-day chronic treatment. In kind it is in vivo, mouse. As to conditions: obese mice after 30 days of treatment, 10 mg/kg. On the procedure: as §2
[8] abbreviates: obese mice, 10 mg/kg i.p. daily, 30 days.

T1 sequence (P47746 whole entry): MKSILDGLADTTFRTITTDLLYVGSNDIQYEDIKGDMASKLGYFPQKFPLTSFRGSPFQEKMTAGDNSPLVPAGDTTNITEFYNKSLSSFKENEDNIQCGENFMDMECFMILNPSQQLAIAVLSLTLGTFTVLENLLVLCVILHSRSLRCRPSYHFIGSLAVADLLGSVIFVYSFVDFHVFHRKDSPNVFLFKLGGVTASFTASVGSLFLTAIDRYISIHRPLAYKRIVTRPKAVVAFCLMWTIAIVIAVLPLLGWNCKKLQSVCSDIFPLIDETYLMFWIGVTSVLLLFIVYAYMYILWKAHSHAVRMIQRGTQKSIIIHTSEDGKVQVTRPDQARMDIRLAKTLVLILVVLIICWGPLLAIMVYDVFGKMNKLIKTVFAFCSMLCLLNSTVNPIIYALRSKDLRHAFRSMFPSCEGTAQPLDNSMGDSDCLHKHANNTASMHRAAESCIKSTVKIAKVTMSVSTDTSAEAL

As for `CCCCC/C=C\C/C=C\C/C=C\C/C=C\CCCC(=O)NCCO` [AEA, reference compound], the gastrointestinal transit result in the data set with C57BL/6 mice is “strongly inhibited”. In addition, the “intracellular cAMP concentration on activation of the receptors by agonist” value at CB1R (pcDNA3.1-mCB1) (data not shown) is recorded as “reduction”.
On to `CSc1ccc(C2C(N3C(=O)c4ccccc4C3=O)C(=O)N2c2ccccc2)cc1` (stereo not drawn) [JM-00.242], for which the “hepatic CB1R expression” value in data set [1] is “not selected for the remainder of the study”.
Same read-out and setting: the entry for `CSc1ccc(C2C(N3C(=O)c4ccccc4C3=O)C(=O)N2c2ccc(Cl)cc2)cc1` (stereo not drawn) [JM-00.246] is “not selected for the remainder of the study”.
Consider `O=C1C(N2C(=O)c3ccccc3C2=O)C(c2ccncc2)N1Cc1cccc(Cl)c1` (stereo not drawn) [JM-01.1006], for which, in data set [1], the “hepatic CB1R expression” value was “significant decrease”. Further, the “cAMP concentrations in the absence of agonist (AEA)” value at CB1R (pcDNA3.1-mCB1) is on record as “no effect”.
On to `COc1cc(OC)cc(N2C(=O)C(N3C(=O)c4ccccc4C3=O)C2c2ccncc2)c1` (stereo not drawn) [JM-02.003], for which the “improvement in glucose tolerance in CB1R KO mice” value in the data set on CB1R -/- mice is given as “persists”. Further, the “hepatic CB1R expression” value in data set [1] is “significant decrease”. The “cAMP concentrations in the absence of agonist (AEA)” value at CB1R (pcDNA3.1-mCB1) is listed as “increased”. The “glucose tolerance compared with vehicle” value in the data set with wild-type C57BL/6 mice is “improves glucose tolerance”.
In the case of `Cc1c(C(=O)NN2CCCCC2)nn(-c2ccc(Cl)cc2Cl)c1-c1ccc(Cl)cc1` [SR141716, reference compound], the “insulin resistance (ITT)” value in the data set on obese C57BL/6 mice [2] was “improved”. Also, in the data set with obese C57BL/6 mice [3], the motor activity entry was “increases motor activity” and the “time spent in the centre of the arena / anxiety state” value was “not altered”. Also, in the data set on obese C57BL/6 mice [4] (30-day chronic treatment), the “ALT and AST concentrations in plasma of obese mice versus control” value is given as “significantly decreased”; the “liver damage markers compared with the control” value is on record as “does not cause an increase”. Further, in the data set with obese C57BL/6 mice [4] (setting [8]), the ALPI plasma concentration stood at 37.4 ± 2.4, the ALT plasma concentration is given as 21.6 ± 2.3 U/L, the AST plasma concentration is given as 46.4 ± 3.1 U/L and the “Gamma GT plasma concentration” value is <3 U/L. Also, the “Total bilirubin plasma concentration” value in the data set on obese C57BL/6 mice [4] (setting [8]) was <2 µmol/L. Also, the “CB1R expression in liver explants” value in data set [5] is “reduced”. Also, in the data set with obese C57BL/6 mice [6] (end of 30-day treatment, NMR), the “fat mass versus control mice” value is listed as “lower fat mass” and the “lean mass versus control mice” value is recorded as “higher lean mass”. For the same compound, in the data set with obese C57BL/6 mice [6] (setting [8]), the “body weight relative to control mice” value is “lost weight” and the “food intake compared with control mice” value is “transiently decrease their food intake”. For the same compound, in the data set with obese C57BL/6 mice [7], the basal blood glucose result is on record as “significant improvement” and the “glucose tolerance (OGTT 2 g/kg)” value is given as “significant improvement”.
